Test results published in patent publication US20240060146A1, “CHEMICAL SUBSTANCE EVALUATION SYSTEM USING MULTICOLOR LIGHT-EMITTING CELLS” (TOHOKU UNIVERSITY, priority 2020, published 2024).

Legend:
Type in all cases: cell-based
[1] = tested on: 2H4 cells; assay: Evaluation of combination of IL-2 Luc LTT and IL-2 Luc assay; parameters: key: Positive (Pos): If the result is either LCT in the IL-2 Luc LTT or S in the IL-2 Luc assay, or both, the chemical substance is determined to be an immunosuppressive substance.; Negative (Neg): In the case other than the above, the chemical substance is determined to be a non-immunosuppressive substance; settings: LCT in IL-2 Luc LTT or S in IL-2 Luc assay = Pos
Description: Positive (Pos): If the result is either LCT in the IL-2 Luc LTT or S in the IL-2 Luc assay, or both, the chemical substance is determined to be an immunosuppressive substance. Negative (Neg): In the case other than the above, the chemical substance is determined to be a non-immunosuppressive substance.

[2] = tested on: 2H4 cells; assay: IL-2 Luc assay: evaluation of chemical substance in 2H4 cells; settings: 1 h chemical, then PMA/ionomycin, luminescence after six hours, class from Min % suppression of nIL2LA
Description: (§1) 2H4 cells were established from Jurkat cells according to the method described in PTL 1. First, for the preparation of 2H4 cells, a plasmid having SLG introduced downstream of the IL-2 promoter, a plasmid having SLR introduced downstream of the G3PDH promoter, and a plasmid having SLO introduced downstream of the INF-γ promoter were prepared as internal standards. These plasmids contained a resistance gene for hygromycin B, puromycin, and neomycin downstream of SLG, SLR, and SLO, respectively. The conditions for drug selection after transfection of the host Jurkat cells were as follows: in the primary selection, the cells were cultured for 1 week in the presence of a drug. In the secondary selection culture, the cells that survived in the primary selection culture were seeded in a 96-well plate at 1 cell/well or 200 cells/well, and cultured for 2 weeks under the same drug conditions. After the secondary selection culture, the cells were subjected to clone selection from the two points of signal intensity and signal induction by drug treatment. The G3PDH promoter SLR was first introduced to establish monochromatic stable cell line Jurkat: G3PDH-SLR #14D1 cells. These cells were used as the parent cell line to introduce the INF-γ promoter SLO, thereby establishing bichromatic stable cell line Jurkat: INFγ-SLO/G3PDH-SLR #2B12 cells. Subsequently, the obtained cells were used as a parent cell line to introduce the IL-2 promoter SLG, thereby establishing trichromatic stable cell line Jurkat IL-2-SLG/INFγ-SLO/G3PDH-SLR #2H4 cells.
(§2) % suppression={(nIL2LA in 2H4 cells untreated with a chemical substance)−(nIL2LA in 2H4 cells treated with a chemical substance)}×100/(nIL2LA in 2H4 cells untreated with a chemical substance) ---(1) Inh-GAPLA=(GAPLA in 2H4 cells treated with a chemical substance)/(GAPLA in 2H4 cells untreated with a chemical substance) ---(2)
The chemical substances listed in Table 1 were evaluated using 2H4 cells. 2H4 cells were seeded in a 96-well plate at 2×10^5 cells/50 μl/well and treated with each chemical substance for 1 hour, followed by incubating the cells with 25 nM PMA and 1 µM ionomycin […]. After six hours from the treatment with PMA and ionomycin, Tripluc: Assay Reagent (manufactured by Toyobo Co., Ltd.) was added, and the amount of luminescence was measured with a Phelios microplate luminometer (manufactured by Atto Corporation). For control, 2H4 cells untreated with a chemical substance were also examined in the same manner. The amount of luminescence of SLG luciferase activity (IL2LA), SLR luciferase activity (GAPLA), and SLO luciferase activity (IFNLA) was measured, and IL-2LA and IFNLA were each normalized by GAPLA and determined to be nIL2LA and nIFNLA, respectively. Thereafter, for the concentration of each chemical substance, the value of suppression was calculated according to formula (1) above, and the chemical substances were evaluated by using their minimum value (Min suppression).

[3] = tested on: 2H4 cells; assay: IL-2 Luc LTT: evaluation of chemical substance in 2H4 cells; settings: 1 h chemical, then 25 nM PMA and 1 μM ionomycin 24 h, class from Min % suppression (nIL2LA) and Min Inh-GAPLA
Description: as §1
The chemical substances listed in Table 1 were evaluated using 2H4 cells. 2H4 cells were seeded in a 96-well plate at 1×10^4/well and treated with each chemical substance for 1 hour, followed by incubating the cells with 25 nM PMA and 1 μM ionomycin for 24 hours. After 24 hours from the treatment with PMA and ionomycin, Tripluck Assay Reagent (manufactured by Toyobo Co., Ltd.) was added, and the amount of luminescence was measured with a Phelios microplate luminometer (manufactured by Atto Corporation). For control, 2H4 cells untreated with a chemical substance were also examined in the same manner. The amount of luminescence of SLG luciferase activity (IL2LA), SLR luciferase activity (GAPLA), and SLO luciferase activity (IFNLA) was measured, and IL-2LA and IFNLA were each normalized by GAPLA and determined to be nIL2LA and nIFNLA, respectively. Thereafter, for the concentration of each chemical substance, “% suppression” and “Inh-GAPLA” were determined according to the following formulas (1) and (2), and the chemical substances were evaluated by using their minimum value (Min % suppression, Min Inh-GAPLA).
In the evaluation, for control, PMA/ionomycin-treated 2H4 cells and PMA/ionomycin-untreated 2H4 cells were also measured for nIL2LA.
as §2

Compound | Evaluation of Combination [1] | IL-2 Luc Assay [2] | IL-2 Luc LTT [3]
C=CC[C@@H]1/C=C(\C)C[C@H](C)C[C@H](OC)[C@H]2O[C@@](O)(C(=O)C(=O)N3CCCC[C@H]3C(=O)O[C@H](/C(C)=C/[C@@H]3CC[C@@H](O)[C@H](OC)C3)[C@H](C)[C@@H](O)CC1=O)[C@H](C)C[C@@H]2OC [Tacrolimus (Tac), Tacrolimus] | Pos | S (Min %; suppression ≥35: Suppression (denoted as “S”; determined to have immunosuppressive action)) | NLCT
COc1cc([C@@H]2c3cc4c(cc3[C@@H](O[C@@H]3O[C@@H]5CO[C@@H](c6cccs6)O[C@H]5[C@H](O)[C@H]3O)[C@H]3COC(=O)[C@H]23)OCO4)cc(OC)c1O [Teniposide] | Pos | N (−35<Min % suppression <35: No Effect (denoted as “N”; determined to not affect immunity)) | LCT (Min % suppression ≤−35 and Min Inh-GAPLA <0.7: Leukocyte toxic (denoted as “LCT”; determined to have cell growth inhibition action and/or metabolic activity inhibition action))
CN(C/C=C/C#CC(C)(C)C)Cc1cccc2ccccc12 [Terbinafine] | Pos | N (−35<Min % suppression <35: No Effect (denoted as “N”; determined to not affect immunity)) | NLCT
CC(=O)CC(c1ccccc1)c1c(O)c2ccccc2oc1=O (stereo not drawn) [Warfarin] | Neg | N (−35<Min % suppression <35: No Effect (denoted as “N”; determined to not affect immunity)) | NLCT
Bleomycin sulfate | Pos | N (−35<Min % suppression <35: No Effect (denoted as “N”; determined to not affect immunity)) | LCT (Min % suppression ≤−35 and Min Inh-GAPLA <0.7: Leukocyte toxic (denoted as “LCT”; determined to have cell growth inhibition action and/or metabolic activity inhibition action))
